From article PMC5037267, “Crystal Structure of a Group I Energy Coupling Factor Vitamin Transporter S Component in Complex with Its Cognate Substrate” (Cell Chemical Biology, 2016)
Where a chain is given by its changes, count along the chain named.

Assays:
Format in all cases: binding
YkoE [1] = biological target: T1, YkoE (Bacillus subtilis, UniProt O34738); assay: intrinsic Trp fluorescence quenching titration
T1 construct: isolated S component without YkoC/YkoD; N-terminal His6 tag cut by TEV; E. coli Lemo21; n-decyl-beta-D-maltopyranoside; four N-terminal residues not seen in crystal
T1 sequence (O34738 1-199 limits assumed): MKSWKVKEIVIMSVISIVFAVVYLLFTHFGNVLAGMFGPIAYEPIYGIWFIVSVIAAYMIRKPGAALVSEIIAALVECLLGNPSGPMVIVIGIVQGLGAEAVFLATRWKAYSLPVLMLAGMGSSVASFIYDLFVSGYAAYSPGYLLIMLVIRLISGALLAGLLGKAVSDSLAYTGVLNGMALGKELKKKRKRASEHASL

YkoE [2] = biological target: T2, YkoE (Bacillus subtilis, UniProt O34738, Y46A); assay: intrinsic Trp fluorescence quenching titration
T2 construct: isolated S component without YkoC/YkoD; N-terminal His6 tag cut by TEV; E. coli Lemo21; n-decyl-beta-D-maltopyranoside; four N-terminal residues not seen in crystal
T2 sequence (O34738 1-199 Y46A limits assumed): T1 sequence (O34738 1-199 limits assumed) with Y46A

YkoE [3] = biological target: T1, YkoE; assay: CD thermal melting at […] nm; settings: YkoE from M9 medium plus excess thiamine; reference without added thiamine 68 °C; pH 7.1, 200 mM NaCl; 1 °C/min
YkoE [4] = biological target: T3, YkoE (Bacillus subtilis, UniProt O34738, E77A); assay: intrinsic Trp fluorescence quenching titration
T3 construct: isolated S component without YkoC/YkoD; N-terminal His6 tag cut by TEV; E. coli Lemo21; n-decyl-beta-D-maltopyranoside; four N-terminal residues not seen in crystal
T3 sequence (O34738 1-199 E77A limits assumed): T1 sequence (O34738 1-199 limits assumed) with E77A

YkoE [5] = biological target: T4, YkoE (Bacillus subtilis, UniProt O34738, D131A); assay: intrinsic Trp fluorescence quenching titration
T4 construct: isolated S component without YkoC/YkoD; N-terminal His6 tag cut by TEV; E. coli Lemo21; n-decyl-beta-D-maltopyranoside; four N-terminal residues not seen in crystal
T4 sequence (O34738 1-199 D131A limits assumed): T1 sequence (O34738 1-199 limits assumed) with D131A

YkoE [6] = biological target: T5, YkoE (Bacillus subtilis, UniProt O34738, Q95A); assay: intrinsic Trp fluorescence quenching titration
T5 construct: isolated S component without YkoC/YkoD; N-terminal His6 tag cut by TEV; E. coli Lemo21; n-decyl-beta-D-maltopyranoside; four N-terminal residues not seen in crystal
T5 sequence (O34738 1-199 Q95A limits assumed): T1 sequence (O34738 1-199 limits assumed) with Q95A
Source text: intrinsic Trp fluorescence quenching titration on YkoE | with the Q95A mutation showing the largest effect on affinity

Cc1ncc(C[n+]2csc(CCO)c2C)c(N)n1 [thiamine] gave a Kd (YkoE [1]) of ~4.5 nM, a Kd (YkoE [2]) of 10.3 ± 0.8 nM and a Tm (YkoE [3]) of 75 °C. It also gave a Kd (YkoE [4]) of 9.3 ± 0.6 nM, a Kd (YkoE [5]) of 9.4 ± 0.9 nM and a Kd (YkoE [6]) of 26.9 ± 1.6 nM.
